For one assay, the system named is Trl46 HNSCC cells. As to conditions: Trl46, 1 μM pevonedistat; cited from earlier work.
For a further assay, the system named is FaDu cells. Kind of assay: Rereplication by propidium iodide staining and FACS (HNSCC). The class given is cell-based, human. On the procedure:
The effect of pevonedistat treatment or CDT2, geminin, or EMI1 knockdown on the cell cycle (and induction of DNA rereplication) was assessed by flow cytometry with propidium iodide (PI) staining. Cells were harvested at 72 or 96 hours post-treatment with pevonedistat or post-transfection, respectively. Cells were collected, washed with PBS, and resuspended in ethanol (75%). Cells were subsequently treated with 20 μg of DNase-free RNase and stained with PI following the manufacturer's protocol. FACSCAN™ (Becton, Dickinson and Company, Franklin Lakes, N.J., United States of America) was used to analyze the samples and G0-G1, S, and G2-M fractions were segmented. Subsequent analysis using FLOWJO® (FLOWJO, LLC, Ashland, Oreg., United States of America) and ModFit (Verity Software House, Topsham, Me., United States of America) software was used to determine apoptotic and re-replicating fractions. Where indicated, Cal27 and FaDu cells were treated with pevonedistat for 48 hours and pulsed with BrdU (10 nM) for 1 hour in the dark prior to harvesting. Cells were washed with PBS and staining solution before fixation and permeabilization steps according to the manufacturer's protocol. Cells were subsequently stained with anti-BrdU antibody solution for 20 minutes at room temperature, washed, and stained with 7-AAD for 30 minutes at 4° C. Cells were resuspended in 1 ml of staining buffer and stored at 4° C. overnight before analysis. Sampled were analyzed on a FACSCAN™ (Becton, Dickinson and Company, Franklin Lakes, N.J., United States of America), and different fractions of BrdU positive cells were determined using FLOWJO® (FLOWJO, LLC, Ashland, Oreg., United States of America) and ModFit (Verity Software House, Topsham, Me., United States of America) software.

The subject of assay [1] is cullin ubiquitylation substrates (CDT2, CDT1, p21, p27) in DM93 cells. Kind of assay: Immunoblotting of cullin ubiquitylation substrates. The assay is classed as cell-based, human. As to conditions: DM93, increasing doses for 24 hours; significant levels at 1 μM. The protocol:
Melanoma cells were lysed with RIPA lysis buffer (50 mM Tris, pH 8.0; 150 mM NaCl, 1% NP-40; 0.5% sodium deoxycholate; 0.1% SDS; 1 mM Benzamidine-HCl; 0.5 μg/ml Leupeptin; 0.5 μg/ml Aprotinin; 1 μg/ml pepstatin; 20 mM NaF; 20 mM Na3VO4), and equal amounts of protein were electrophoretically separated in a polyacrylamide 8-12% gel (Bio-Rad Laboratories, Inc., Hercules, Calif., United States of America), trans-blotted to a nitrocellulose membrane, and incubated overnight with primary antibodies at 4° C. The following antibodies were used: Anti-p21 (C19), anti-p27 (C19), anti-p53 (DO-1), and anti-tubulin (10D8) were purchased from Santa Cruz Biotechnology, Inc. (California, United States of America). Antibodies against SET8, CHK1, CHK2, p-CHK1 (S375), p-CHK2 (T68), H2AX and p-H2AX (γH2AX; T139), and PARP were purchased from Cell Signaling Technology, Inc. (Danvers, Mass., United States of America). Anti-Cul3 was purchased from Bethyl Laboratories (Montgomery, Tex., United States of America). Anti-CDT1 and anti-CDT2 antibodies were described before (Abbas et al., 2010). The immunoblot signals were detected by enhanced chemiluminescence. For murine melanoma xenografts, tumors were isolated, washed three times with cold PBS, and frozen at −80° C. until use. […]

A further assay has as its system DM13 cells. Kind of assay: Rereplication by propidium iodide staining and FACS. The class given is cell-based, human. The protocol:
(§1) The effects of pevonedistat, vemurafenib, and/or silencing of various cell cycle-associated proteins by siRNA on cell cycle distribution and rereplication were assessed by propidium iodide staining and flow cytometry of asynchronous melanoma cultures. Synchronization of cells was not employed to avoid bias and to be able to measure the impact of these perturbations on proliferating cancer cells. Briefly, asynchronous melanoma cell lines were treated with pevonedistat or vemurafenib, or transfected with si-CDT1, si-CDT2, si-SET8, si-p21, sigeminin, si-EMI1, or si-GL2 for a time ranging from 24 to 96 hours. Cells were washed with cold PBS, harvested, and fixed in 70% (v/v) ethanol. Cells were subsequently treated with 20 μg of DNase-free RNase and stained with propidium iodide according to instructions of the manufacturer. Samples were analyzed on a FACSCAN™ (Becton, Dickinson and Company, Franklin Lakes, N.J., United States of America) and G0-G1, S, and G2-M fractions were segmented, and apoptotic (sub-G1 DNA content) and rereplicating (>G2/M DNA content) fractions were determined using FLOWJO® (FLOWJO, LLC, Ashland, Oreg., United States of America) and ModFit (Verity Software House, Topsham, Me., United States of America) software.

Another assay deals with DM331 cells. Described as above. The assay is classed as cell-based, human. As to conditions: DM331, 1 μM pevonedistat. The protocol: as §1
Another assay relates to SLM2 melanoma cells. The assay is described as above. The assay is classed as cell-based, human. The protocol:
as §1

In another assay the test system is DM93 cells. Kind of assay: Senescence-associated β-galactosidase assay. The assay is classed as cell-based, human. As to conditions: DM93, pevonedistat, as early as 48 hours post-treatment. On the procedure:
Senescence was monitored using β-galactosidase (β-gal) staining. Following the various treatments, cells were washed twice with PBS, fixed with 2% formaldehyde/0.2% gluteraldehyde in PBS for 15 minutes at room temperature, and washed twice with PBS. The cells were stained with fresh X-Gal solution (1 mg/ml X-gal, 40 mM C6H8O7.H2O, 5 mM K3Fe(CN)6, 5 mM K4Fe(CN)6.3H2O, 150 mM NaCl, and 2 mM MgCl2.6H2O in PBS) for 3-12 hours at 37° C. in the dark. Cells were washed three times in PBS and fixed with 100% methanol for 5 minutes at room temperature. Bright field blue color images were taken with an AMG EVOS® XL Core Imager/camera microscope (Life Technologies, Inc., Carlsbad, Calif., United States of America) counting at least 100 cells from at least 3 fields.

For the molecule `NS(=O)(=O)OCC1CC(n2ccc3c(NC4CCc5ccccc54)ncnc32)CC1O` [pevonedistat, ((1S,2S,4R)-4-(4-((1S)-2,3-Dihydro-H-inden-1-ylamino)-7H-pyrrolo(2,3-d)pyrimidin-7-yl)-2-hydroxycyclopentyl)methyl sulphamate], the “apoptosis (% of cells)” value with Trl46 HNSCC cells was 65%. Further, the cells undergoing rereplication was 42.2% with FaDu cells (40 nM pevonedistat 48 hours plus 2 Gy at the 24 hour time point); 21.6% in the assay on FaDu cells (40 nM pevonedistat for 48 hours); 13.7% in the assay with DM13 cells (DM13, 72 hours post-treatment). Moreover, the “cells exhibiting >4N DNA content” value in the assay with FaDu cells (100 nM pevonedistat, PI staining) was determined as 60.4%. Moreover, the “cullin ubiquitylation substrates CDT2, CDT1, p21 and p27” value in assay [1] is on record as “dose-dependent increase”. Besides, the “Percent of Cells in S and G2/M at 24 hours” value with DM13 cells (DM13, 1 μM pevonedistat, 24 hours) is recorded as 10.4%; in the assay on DM331 cells (24 hours), 47.8%; in the assay on SLM2 melanoma cells (SLM2, 1 μM pevonedistat, 24 hours), 46.8%. Moreover, the “Percent of Cells in S and G2/M at 72 Hours” value amounted to 13.7% in the assay on DM13 cells (DM13, 1 μM pevonedistat, 72 hours); 63.2% in the assay with DM331 cells (72 hours); 50.2% in the assay on SLM2 melanoma cells (SLM2, 1 μM pevonedistat, 72 hours). Moreover, the cells with rereplication entry in the assay with SLM2 melanoma cells (SLM2, 72 hours post-treatment) is “more than 58%”. Besides, in the assay on DM93 cells, the senescence result is “majority of cells underwent senescence”.

(Values after US20200397894A1, “COMPOSITIONS AND METHODS FOR TREATING CANCER” (University of Virginia Patent Foundation, priority 2016, published 2020).)
